Where a name gives a salt, the structure may show the parent alone.
biological target: T1, BRD4 BD2 (Homo sapiens, UniProt O60885, Y97A); experiment: TR-FRET binding assay, BRD4 BD2 (BD1-mutated protein); conditions: read-out: pIC50 in the BRD4 BD2 assay (converted)
T1 construct: BRD4 (1-477) (Y97A) and (Y390A); made in house; host or cells: E. coli (pET15b vector)
Protocol: Time Resolved Fluorescence Resonance Energy Transfer (TR-FRET) Assay Binding was assessed using a time resolved fluorescent resonance energy transfer binding assay. This utilises a 6 His purification tag at the N-terminal of the proteins as an epitope for an anti-6 His antibody labeled with Europium chelate (PerkinElmer AD0111) allowing binding of the Europium to the proteins which acts as the donor fluorophore. A small molecule, high affinity binder of the bromodomains BRD2, BRD3, BRD4 and BRDT has been labeled with Alexa Fluor647 (Reference Compound X) and this acts as the acceptor in the FRET pair.
In the absence of a competing compound, excitation of the Europium causes the donor to emit at λ618 nm which excites the Alexa labelled bromodomain binding compound leading to an increased energy transfer that is measurable at λ647 nM. In the presence of a sufficient concentration of a compound that can bind these proteins, the interaction is disrupted leading to a quantifiable drop in fluorescent resonance energy transfer.
The binding of the compounds of formula (I) to Bromodomains BRD2, BRD3, BRD4 and BRDT was assessed using mutated proteins to detect differential binding to either Binding Domain 1 (BD1) or Binding Domain 2 (BD2) on the bromodomain. These single residue mutations in the acetyl lysine binding pocket greatly lower the affinity of the fluoroligand (Reference Compound X) for the mutated domain (>1000 fold selective for the non-mutated domain). Therefore in the final assay conditions, binding of the fluoroligand to the mutated domain cannot be detected and subsequently the assay is suitable to determine the binding of compounds to the single non-mutated bromodomain.
Recombinant Human Bromodomains [(BRD2 (1-473) (Y113A) and (Y386A), BRD3 (1-435) (Y73A) and (Y348A) BRD4 (1-477) (Y97A) and (Y390A) and BRDT (1-397) (Y66A) and (Y309A)] were expressed in E. coli cells (in pET15b vector for BRD2/3/4 and in pET28a vector for BRDT) with a 6-His tag at the N-terminal. The His-tagged Bromodomain pellet was resuspended in 50 mM HEPES (pH7.5), 300 mM NaCl, 10 mM imidazole & 1 μl/ml protease inhibitor cocktail and extracted from the E. coli cells using sonication and purified using a nickel sepharose high performance column, the proteins were washed and then eluted with a linear gradient of 0-500 mM imidazole with buffer 50 mM HEPES (pH7.5), 150 mM NaCl, 500 mM imidazole, over 20 column volumes. Final purification was completed by Superdex 200 prep grade size exclusion column. Purified protein was stored at −80° C. in 20 mM HEPES pH 7.5 and 100 mM NaCl. Protein identity was confirmed by peptide mass fingerprinting and predicted molecular weight confirmed by mass spectrometry.
All assay components were dissolved in buffer composition of 50 mM HEPES pH7.4, 50 mM NaCl, 5% Glycerol, 1 mM DTT and 1 mM CHAPS. The final concentration of bromodomain proteins were 10 nM and the Alexa Fluor647 ligand was at Kd. These components were premixed and 5 μl of this reaction mixture was added to all wells containing 50 nl of various concentrations of test compound or DMSO vehicle (0.5% DMSO final) in Greiner 384 well black low volume microtitre plates and incubated in dark for 30 minutes at rt. 5 μl of detection mixture containing 1.5 nM final concentration anti-6His Europium chelate was added to all wells and a further dark incubation of at least 30 minutes was performed. Plates were then read on the Envision platereader, (λex=317 nm, donor λem=615 nm; acceptor λem=665 nm; Dichroic LANCE dual). Time resolved fluorescent intensity measurements were made at both emission wavelengths and the ratio of acceptor/donor was calculated and used for data analysis. All data was normalized to the mean of 16 high (inhibitor control—Example 11 of WO 2011/054846A1) and 16 low (DMSO) control wells on each plate. A four parameter curve fit of the following form was then applied: y=a+((b−a)/(1+(10^/10^)^d) […]

IC50	SMILES
100 nM	CC(=O)N1c2ccc(N3CCCC3C)cc2[C@H](Nc2ccccc2)[C@@H](C)[C@@H]1C (mixture of isomers) [Example 81, 1-((rac-2S,3R,4R)-2,3-dimethyl-6-(2-methylpyrrolidin-1-yl)-4-(phenylamino)-3,4-dihydroquinolin-1(2H)-yl)ethanone]
100 nM	CC(=O)N1c2ccc(C3=CCOCC3)cc2[C@H](Nc2cccc(C)n2)[C@@H](C)[C@@H]1C1CC1 (racemic) [Example 85, rac-1-((2S,3R,4R)-2-cyclopropyl-6-(3,6-dihydro-2H-pyran-4-yl)-3-methyl-4-((6-methylpyridin-2-yl)amino)-3,4-dihydroquinolin-1(2H)-yl)ethanone, formic acid salt]
100 nM	CC(=O)N1c2ccc(C3=CCNCC3)cc2[C@H](Nc2cccc(C)n2)[C@@H](C)[C@@H]1C1CC1 (racemic) [Example 87, rac-1-((2S,3R,4R)-2-cyclopropyl-3-methyl-4-((6-methylpyridin-2-yl)amino)-6-(1,2,3,6-tetrahydropyridin-4-yl)-3,4-dihydroquinolin-1(2H)-yl)ethanone]
100 nM	CC(=O)N1c2ccc(C3=CCOCC3)cc2[C@@H](Nc2ccccn2)[C@H](C)[C@H]1C1CC1 (racemic) [Example 92, rac-1-((2S,3R,4R)-2-cyclopropyl-6-(3,6-dihydro-2H-pyran-4-yl)-3-methyl-4-(pyridin-2-ylamino)-3,4-dihydroquinolin-1(2H)-yl)ethanone]
100 nM	CC(=O)N1c2ccc(N3CCNCC3)cc2[C@H](Nc2ccccc2)[C@@H](C)[C@@H]1C1CC1 (racemic) [Example 94, rac-1-((2S,3R,4R)-2-cyclopropyl-3-methyl-4-(phenylamino)-6-(piperazin-1-yl)-3,4-dihydroquinolin-1(2H)-yl)ethanone, hydrochloride]
1000 to 100000 nM	CC(=O)N1c2ccc(N3CCNC(C)C3)nc2[C@H](Nc2ccccc2)[C@@H](C)[C@@H]1C1CC1 (mixture of isomers) [Example 107, 1-((rac-2S,3R,4R)-2-cyclopropyyl-3-methyl-6-(3-methylpiperazin-1-yl)-4-(phenylamino)-3,4-dihydro-1,5-naphthyridin-1(2H)-yl)ethanone]
1000 to 100000 nM	CC(=O)N1c2ccc(N3CCNCC3)nc2[C@H](Nc2ccccc2)[C@@H](C)[C@@H]1C1CC1 (racemic) [Example 108, rac-1-((2S,3R,4R)-2-cyclopropyl-3-methyl-4-(phenylamino)-6-(piperazin-1-yl)-3,4-dihydro-1,5-naphthyridin-1(2H)-yl)ethanone]
1000 to 100000 nM	CC(=O)N1c2ccc(N3CCC(N)CC3)nc2[C@H](Nc2ccccc2)[C@@H](C)[C@@H]1C1CC1 (racemic) [Example 109, rac-1-((2S,3R,4R)-6-(4-aminopiperidin-1-yl)-2-cyclopropyl-3-methyl-4-(phenylamino)-3,4-dihydro-1,5-naphthyridin-1(2H)-yl)ethanone]
1000 to 100000 nM	CC(=O)N1c2ccc(N3CCOCC3)nc2[C@H](Nc2ccccc2)[C@@H](C)[C@@H]1C1CC1 (racemic) [Example 110, rac-1-((2S,3R,4R)-2-cyclopropyl-3-methyl-6-morpholino-4-(phenylamino)-3,4-dihydro-1,5-naphthyridin-1(2H)-yl)ethanone]
1000 to 100000 nM	COc1ccc2c(n1)[C@H](Nc1cccc(C)n1)[C@@H](C)[C@H](C1CC1)N2C(C)=O (racemic) [Example 111, rac-1-((2S,3R,4R)-2-cyclopropyl-6-methoxy-3-methyl-4-((6-methylpyridin-2-yl)amino)-3,4-dihydro-1,5-naphthyridin-1(2H)-yl)ethanone]
1000 to 100000 nM	CC(=O)N1c2ccc(O)nc2[C@H](Nc2cccc(C)n2)[C@@H](C)[C@@H]1C1CC1 (racemic) [Example 112, rac-1-((2S,3R,4R)-2-cyclopropyl-6-hydroxy-3-methyl-4-((6-methylpyridin-2-yl)amino)-3,4-dihydro-1,5-naphthyridin-1(2H)-yl)ethanone]
1000 to 100000 nM	CC(=O)N1c2cccnc2[C@H](Nc2cccc(C)n2)[C@@H](C)[C@@H]1C1CC1 (racemic) [Example 113, rac-1-((2S,3R,4R)-2-cyclopropyl-3-methyl-4-((6-methylpyridin-2-yl)amino)-3,4-dihydro-1,5-naphthyridin-1(2H)-yl)ethanone]
100 nM	CC(=O)N1c2cnccc2[C@H](Nc2ccccc2)[C@@H](C)[C@@H]1C (racemic) [Example 115, rac-1-((2S,3R,4R)-2,3-dimethyl-4-(phenylamino)-3,4-dihydro-1,7-naphthyridin-1(2H)-yl)ethanone formate]
100 nM	CC(=O)N1c2ccccc2[C@H](Oc2ccccc2)[C@@H](C)[C@@H]1C1CC1 (racemic) [Example 119, rac-1-((2S,3S,4R)-2-cyclopropyl-3-methyl-4-phenoxy-3,4-dihydroquinolin-1(2H)-yl)ethanone]
100 nM	CC(=O)N1c2ccccc2[C@H](Nc2cccc(CN)c2)[C@@H](C)[C@@H]1C1CC1 (racemic) [Example 124, rac-1-((2S,3R,4R)-4-((3-(aminomethyl)phenyl)amino)-2-cyclopropyl-3-methyl-3,4-dihydroquinolin-1(2H)-yl)ethanone, hydrochloride]
1000 to 100000 nM	CC(=O)N1c2ccccc2[C@H](Nc2ccc(C(=O)O)cc2)[C@@H](C)[C@@H]1C1CC1 (racemic) [Example 127, rac-4-(((2S,3R,4R)-1-acetyl-2-cyclopropyl-3-methyl-1,2,3,4-tetrahydroquinolin-4-yl)amino)benzoic acid]
100 nM	CNCCn1cc(-c2ccc3c(c2)[C@H](Nc2ccc(C#N)cc2)[C@@H](C)[C@H](C2CC2)N3C(C)=O)cn1 (racemic) [Example 134, rac-4-(((2S,3R,4R)-1-acetyl-2-cyclopropyl-3-methyl-6-(1-(2-(methylamino)ethyl)-1H-pyrazol-4-yl)-1,2,3,4-tetrahydroquinolin-4-yl)amino)benzonitrile]
100 nM	CC(=O)N1c2ccc(F)cc2[C@H](Nc2ccc(C#N)cc2)[C@@H](C)[C@@H]1C (racemic) [Example 139, rac-4-(((2S,3R,4R)-1-acetyl-6-fluoro-2,3-dimethyl-1,2,3,4-tetrahydroquinolin-4-yl)amino)benzonitrile]
100 nM	CC(=O)N1c2ccc(F)cc2[C@H](Nc2ccc(F)cn2)[C@@H](C)[C@@H]1C (racemic) [Example 141, rac-1-((2S,3R,4R)-6-fluoro-4-((5-fluoropyridin-2-yl)amino)-2,3-dimethyl-3,4-dihydroquinolin-1(2H)-yl)ethanone]
100 nM	CC(=O)N1c2ccc(F)cc2[C@H](Nc2ccc(C#N)cn2)[C@@H](C)[C@@H]1C (racemic) [Example 143, rac-6-(((2S,3R,4R)-1-acetyl-6-fluoro-2,3-dimethyl-1,2,3,4-tetrahydroquinolin-4-yl)amino)nicotinonitrile]
100 nM	CC(=O)N1c2ccc(F)cc2[C@H](Nc2ccc(C#N)cc2)[C@@H](C)[C@@H]1C1CC1 (racemic) [Example 161, rac-4-(((2S,3R,4R)-1-acetyl-2-cyclopropyl-6-fluoro-3-methyl-1,2,3,4-tetrahydroquinolin-4-yl)amino)benzonitrile]
100 nM	CC(=O)N1c2ccc(C3=CCOCC3)cc2[C@H](Nc2ncccn2)[C@@H](C)[C@@H]1C1CC1 (racemic) [Example 177, rac-1-((2S,3R,4R)-2-cyclopropyl-6-(3,6-dihydro-2H-pyran-4-yl)-3-methyl-4-(pyrimidin-2-ylamino)-3,4-dihydroquinolin-1(2H)-yl)ethanone, formic acid salt]

— patent publication US11478478B2, “2,3-disubstituted 1-acyl-4-amino-1,2,3,4-tetrahydroquinoline derivatives and their use as bromodomain inhibitors” (GLAXOSMITHKLINE INTELLECTUAL PROPERTY (NO.2) LIMITED, priority 2013, dated 2022)
